Values quoted from earlier work in patent publication US20020051978A1, “Methods and compositions for the identification, assessment, prevention and therapy of human cancers” (priority 2000, published 2002).
Read-outs that look alike come from different tables or passages of the source.

Tested on: 60 cancer cell lines (NCI 60 cancer cell line series)
Conditions: cited from earlier work

Measured: -Log (GI50)

CS(=O)(=O)OCCCCOS(C)(=O)=O [Busulfan]
3.9: Leukemia MOLT-4 (CL7006) | Renal CAKI-1 CL9015 | Renal RXF-393 CL9016
4.1: Leukemia SR CL7019
4.0: NSCLC NCI-H460 CL1021
3.8: CNS SF-268 CL12014 | CNS SNB-75(I) CL12005 | Leukemia CCRF-CEM(I) (CL7003) | Leukemia HL-60(I) (CL7008) | NSCLC HOP-92 (CL1029) | Renal ACHN CL9023
3.6: Breast BT-549 (CL5013) | Breast HS-578T CL5006 | Breast MCF7/ADRr (CL5002) | Breast MDA-MB-231 CL5005 | Breast MDA-MB-435 (CL5011) | Breast T-47D (CL5014) | CNS SF-539 CL12016 | CNS SNB-19 (CL12002) | CNS U251(I) CL12009 | Colon COLO-250 CL4010 | Colon HCT-15 CL4015 | Colon HCT-116 (CL4003) | Colon HT29(I) CL4001 | Colon KM12 (CL4017) | Leukemia K562(I) CL7005 | Leukemia RPMI-8226(I) (CL7010) | Melanoma M14 (CL10014) | Melanoma MALME-3M CL10002 | Melanoma SK-MEL-2 (CL10005) | Melanoma SK-MEL-5 (CL10007) | NCSLC NCI-H522 CL1003 | NSCLC NCI-H23(I) CL1001 | NSCLC NCI-H332M CL1017 | Ovarian IGROV1 CL6010 | Ovarian OVCAR-5 CL6003 | Ovarian OVCAR-8 CL6005 | Ovarian SK-OV-3 CL6011 | Prostate PC-3(I) CL11001 | Renal 786-O CL9018 | Renal A498 CL9013 | Renal SN12C CL9008 | Renal TK10 CL9024 | Renal UO-31 CL9004
3.7: Breast MCF7(I) (CL5001) | Breast MDA-N CL5012 | CNS SF-295 CL12015 | Colon HCC-2998 (CL4002) | Colon SW-620 (CL4009) | Melanoma LOX IMVI CL10001 | Melanoma SK-MEL-28 (CL10008) | Melanoma UACC-62 (CL10020) | Melanoma UACC-257 (CL10021) | NSCLC A549/ATCC (CL1004) | NSCLC EKVX (CL1008) | NSCLC HOP-62 (CL1026) | NSCLC NCI-H226 CL1013 | Ovarian OVCAR-3 CL6001 | Ovarian OVCAR-4 CL6002 | Prostate DU-145 CL11003

O=C(O)CCCc1ccc(N(CCCl)CCCl)cc1 [Chlorambucil]
4.1: Colon SW-620 (CL4009) | Leukemia RPMI-8226(I) (CL7010) | Melanoma SK-MEL-5 (CL10007) | Melanoma UACC-257 (CL10021) | NSCLC NCI-H226 CL1013 | Ovarian OVCAR-8 CL6005
4.4: CNS SF-295 CL12015 | CNS U251(I) CL12009 | Melanoma LOX IMVI CL10001 | NSCLC HOP-62 (CL1026)
3.8: Breast MDA-MB-231 CL5005 | Colon KM12 (CL4017) | Melanoma SK-MEL-2 (CL10005) | NSCLC EKVX (CL1008) | Renal TK10 CL9024
5.3: Leukemia MOLT-4 (CL7006)
4.0: Breast BT-549 (CL5013) | CNS SNB-19 (CL12002) | Colon HCC-2998 (CL4002) | Colon HCT-15 CL4015 | Colon HCT-116 (CL4003) | Melanoma SK-MEL-28 (CL10008) | Ovarian OVCAR-3 CL6001 | Ovarian OVCAR-5 CL6003 | Ovarian SK-OV-3 CL6011 | Prostate PC-3(I) CL11001
4.9: NSCLC NCI-H460 CL1021
5.2: Leukemia CCRF-CEM(I) (CL7003) | Leukemia SR CL7019
3.7: Breast HS-578T CL5006 | NSCLC NCI-H332M CL1017
5.1: Leukemia HL-60(I) (CL7008)
4.2: Melanoma M14 (CL10014) | Melanoma MALME-3M CL10002 | NSCLC A549/ATCC (CL1004) | NSCLC HOP-92 (CL1029) | Prostate DU-145 CL11003 | Renal UO-31 CL9004
4.3: Breast MCF7/ADRr (CL5002) | Breast T-47D (CL5014) | CNS SNB-75(I) CL12005
4.6: CNS SF-539 CL12016 | NCSLC NCI-H522 CL1003 | NSCLC NCI-H23(I) CL1001 | Renal RXF-393 CL9016
4.8: Renal ACHN CL9023 | Renal CAKI-1 CL9015
3.9: Breast MDA-MB-435 (CL5011) | Breast MDA-N CL5012 | Colon COLO-250 CL4010 | Colon HT29(I) CL4001 | Leukemia K562(I) CL7005 | Ovarian IGROV1 CL6010 | Ovarian OVCAR-4 CL6002 | Renal A498 CL9013
4.7: Melanoma UACC-62 (CL10020)
4.5: Breast MCF7(I) (CL5001) | CNS SF-268 CL12014 | Renal 786-O CL9018 | Renal SN12C CL9008
